The values below come from ChEMBL document CHEMBL1157231, “Antibacterial compounds from Glycyrrhiza uralensis” (2006).

In this assay the test system is Streptococcus mutans. The assay can be described thus: Antibacterial activity against Streptococcus mutans ATCC 25175 after 16 to 20 hrs by NCCLS method. Format: functional.

Compound `COc1c(CC=C(C)C)c(O)cc2c1-c1oc3cc(O)c(CC=C(C)C)cc3c1CO2` [GLYCYRRHIZOL A] yielded an Activity of 1 µg/mL.

As for `CC(C)=CCc1c(O)c(CC=C(C)C)c2occ(-c3ccc(O)cc3)c(=O)c2c1O`, the Activity worked out at 2 µg/mL.

As for `COc1cc2oc(=O)c3c4ccc(O)cc4oc3c2c(OC)c1CC=C(C)C`, the Activity came out at 500 µg/mL.

In turn, `COc1cc(O)cc2c1-c1oc3c4c(ccc3c1CO2)OC(C)(C)C=C4` [GLYCYRRHIZOL B] displayed an Activity of 32 µg/mL.

Compound `COc1c2c(cc3oc(=O)c4c5ccc(O)cc5oc4c13)OC(C)(C)CC2` [ISOGLYCYROL] had an Activity of 500 µg/mL.

The compound `COc1cc2occ(-c3ccc(O)cc3)c(=O)c2c(O)c1CC=C(C)C` [GANCAONIN G] came in with an Activity of 125 µg/mL.
